The results in this text go back to ChEMBL document CHEMBL4311992, “Discovery of 3-(((9H-purin-6-yl)amino)methyl)-4,6-dimethylpyridin-2(1H)-one derivatives as novel tubulin polymerization inhibitors for treatment of cancer” (Eur J Med Chem, 2019).

One test relates to HCT-116. In words: Induction of apoptosis in human HCT116 cells assessed as early apoptotic cells at 100 nM measured after 48 hrs by Annexin V-FITC/propidium iodide staining-based flow cytometry (reference value: 0.418%). Format: functional.
Test [1] is filed under the species Homo sapiens. In words: Inhibition of human activated Tec F514V mutant (174 to end residues) using EFPIYDFLPAKKK as substrate measured after 40 mins in presence of [gamma33P]ATP by scintillation counting method. Also on record: scale not given: the % may be the effect or the level left.
Test [2] deals with Serine/threonine-protein kinase B-raf (Homo sapiens), P15056 [V600E]. In words: Inhibition of recombinant human BRAF V599E mutant (416 to end residues) assessed as residual activity at 10 uM using myelin basic protein as substrate measured after 40 mins in presence of [gamma33P]ATP by scintillation counting method.
In test [3] the target is Calcium/calmodulin-dependent protein kinase kinase 1 (Homo sapiens) (UniProt Q8N5S9). In words: Inhibition of recombinant full-length human CAMKk1 assessed as residual activity at 10 uM using calmodulin as substrate measured after 40 mins in presence of [gamma33P]ATP by scintillation counting method.
Test [4] has as its target Wee1-like protein kinase 2 (Homo sapiens) (UniProt P0C1S8). In words: Inhibition of recombinant full-length human WEE1b assessed as residual activity at 10 uM using LSNLYHQGKFLQTFCGSPLYRRR as substrate measured after 120 mins in presence of [gamma33P]ATP by scintillation counting method.
The next test addresses Tubulin (Homo sapiens) (UniProt P68371+Q9H4B7+P0DPH7+P68366+Q13509+Q71U36+P04350+Q3ZCM7+P07437+P68363+Q9BQE3+Q6PEY2+Q13885+Q9BVA1+Q9BUF5). In words: Disruption of microtubule network in human SW620 cells assessed as microtubule disorganization at 50 nM for 18 hrs by FITC/DAPI staining-based confocal microscopic analysis. Format: cell-based.
The target of test [5] is TGF-beta receptor type-2 (Homo sapiens) (UniProt P37173). In words: Inhibition of human TGFBR2 (188 to end residues) using myelin basic protein as substrate measured after 120 mins in presence of [gamma33P]ATP by scintillation counting method. On the set-up: scale not given: the % may be the effect or the level left.
The test system of test [6] is Angiopoietin-1 receptor (Homo sapiens), Q02763 [Q939H,Q940H,R849W]. In words: Inhibition of human Tie2 Q939H/Q940H/R849W mutant (771 to end residues) using EFPIYDFLPAKKK as substrate measured after 40 mins in presence of [gamma33P]ATP by scintillation counting method. On the set-up: scale not given: the % may be the effect or the level left.
Test [7] addresses STE20-like serine/threonine-protein kinase (Homo sapiens) (UniProt Q9H2G2). In words: Inhibition of human SLK (1 to 373 residues) using RLGRDKYKTLRQIRQ as substrate measured after 40 mins in presence of [gamma33P]ATP by scintillation counting method. On the set-up: scale not given: the % may be the effect or the level left.
Test [8] is filed under the species Homo sapiens. In words: Inhibition of human Ros V2262A mutant (1883 to end residues) using KKKSPGEYVNIEFG as substrate measured after 40 mins in presence of [gamma33P]ATP by scintillation counting method. Also on record: scale not given: the % may be the effect or the level left.
Another test relates to SW-620. In words: Induction of apoptosis in human SW620 cells assessed as decrease in Bcl2 expression up to 200 nM measured after 48 hrs by Western blot analysis. Format: functional, cell-based.
Test [9] concerns the target Dual specificity protein kinase CLK1 (Homo sapiens) (UniProt P49759). In words: Inhibition of recombinant human CLK1 (130 to end residues) assessed as residual activity at 10 uM using ERMRPRKRQGSVRRRV as substrate measured after 40 mins in presence of [gamma33P]ATP by scintillation counting method.
Test [10] has as its system SNF-related serine/threonine-protein kinase (Homo sapiens), Q9NRH2 [UNDEFINED MUTATION]. In words: Inhibition of human SNRK E97G/P116A mutant (65 to 409 residues) using KKLRRTLSFAEPG as substrate measured after 40 mins in presence of [gamma33P]ATP by scintillation counting method. On the set-up: scale not given: the % may be the effect or the level left.
In test [11] the target is Dual specificity tyrosine-phosphorylation-regulated kinase 3 (Homo sapiens) (UniProt O43781). In words: Inhibition of recombinant full-length human DYRK3 assessed as residual activity at 10 uM using RRRFRPASPLRGPPK as substrate measured after 40 mins in presence of [gamma33P]ATP by scintillation counting method.
Test [12] deals with MAP/microtubule affinity-regulating kinase 4 (Homo sapiens) (UniProt Q96L34). In words: Inhibition of recombinant full-length human MARK4 assessed as residual activity at 10 uM using KKKVSRSGLYRSPSMPENLNRPR as substrate measured after 40 mins in presence of [gamma33P]ATP by scintillation counting method.
Test [13] addresses Serine/threonine-protein kinase ULK2 (Homo sapiens) (UniProt Q8IYT8). In words: Inhibition of human ULK2 (1 to 306 residues) using casein as substrate measured after 40 mins in presence of [gamma33P]ATP by scintillation counting method. Also on record: scale not given: the % may be the effect or the level left.
The target of test [14] is Serine/threonine-protein kinase VRK2 (Homo sapiens) (UniProt Q86Y07). In words: Inhibition of human VRK2 (1 to 336 residues) using casein as substrate measured after 40 mins in presence of [gamma33P]ATP by scintillation counting method. Also on record: scale not given: the % may be the effect or the level left.
Test [15] has as its target Serine/threonine-protein kinase 32C (Homo sapiens) (UniProt Q86UX6). In words: Inhibition of recombinant full-length human STK32C assessed as residual activity at 10 uM using casein as substrate measured after 120 mins in presence of [gamma33P]ATP by scintillation counting method.
In test [16] the target is Tyrosine-protein kinase Lck (Homo sapiens) (UniProt P06239). In words: Inhibition of recombinant full-length human Lck assessed as residual activity at 10 uM using KVEKIGEGTYGVV as substrate measured after 40 mins in presence of [gamma33P]ATP by scintillation counting method.
Test [17] concerns the target Tyrosine-protein kinase JAK3 (Homo sapiens) (UniProt P52333). In words: Inhibition of recombinant human JAK3 (781 to end residues) assessed as residual activity at 10 uM using GGEEEEYFELVKKKK as substrate measured after 40 mins in presence of [gamma33P]ATP by scintillation counting method.
For test [18], the target named is Mitogen-activated protein kinase kinase kinase 2 (Homo sapiens) (UniProt Q9Y2U5). In words: Inhibition of recombinant full-length human MEKK2 assessed as residual activity at 10 uM using myelin basic protein as substrate measured after 40 mins in presence of [gamma33P]ATP by scintillation counting method.
The species entered for another test is Mus musculus. In words: Inhibition of recombinant full-length mouse PI3K p110alpha/p65alpha (1 to 571 residues) assessed as residual activity at 10 uM using phosphatidylinositol-4, 5-bisphosphate as substrate measured after 40 mins by HTRF assay.
The target of test [19] is Ephrin type-A receptor 1 (Homo sapiens) (UniProt P21709). In words: Inhibition of recombinant human EphA1 (568 to end residues) assessed as residual activity at 10 uM using KKKSPGEYVNIEF as substrate measured after 40 mins in presence of [gamma33P]ATP by scintillation counting method.

Activity calls are given as the source filed them. The calls are words filed in the database; no cut-off is given here.

Serine/threonine-protein kinase B-raf (Homo sapiens), P15056 [V600E], sequence (P15056 whole entry V600E): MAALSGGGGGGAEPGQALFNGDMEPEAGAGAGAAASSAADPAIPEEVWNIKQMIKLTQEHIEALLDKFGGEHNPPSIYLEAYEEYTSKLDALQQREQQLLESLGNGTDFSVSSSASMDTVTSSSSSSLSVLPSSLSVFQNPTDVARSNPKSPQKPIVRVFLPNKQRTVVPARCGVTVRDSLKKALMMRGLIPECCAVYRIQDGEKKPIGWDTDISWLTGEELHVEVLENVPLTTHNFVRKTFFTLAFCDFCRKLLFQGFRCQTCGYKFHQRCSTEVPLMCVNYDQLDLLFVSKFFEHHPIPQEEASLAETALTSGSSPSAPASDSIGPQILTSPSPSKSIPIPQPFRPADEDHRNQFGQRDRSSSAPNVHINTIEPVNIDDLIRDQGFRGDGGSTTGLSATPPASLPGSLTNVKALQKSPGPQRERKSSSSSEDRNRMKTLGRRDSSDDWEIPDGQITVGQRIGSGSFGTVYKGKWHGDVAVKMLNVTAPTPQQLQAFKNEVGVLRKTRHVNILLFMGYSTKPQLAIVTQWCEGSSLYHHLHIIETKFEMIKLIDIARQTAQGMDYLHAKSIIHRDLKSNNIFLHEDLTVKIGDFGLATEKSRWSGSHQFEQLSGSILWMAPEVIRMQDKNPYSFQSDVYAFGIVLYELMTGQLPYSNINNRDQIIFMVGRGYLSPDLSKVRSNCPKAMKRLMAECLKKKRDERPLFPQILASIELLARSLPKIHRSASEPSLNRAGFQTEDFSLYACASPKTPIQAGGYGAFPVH
MAP/microtubule affinity-regulating kinase 4 (Homo sapiens), sequence (Q96L34 whole entry, the tested form may be a part): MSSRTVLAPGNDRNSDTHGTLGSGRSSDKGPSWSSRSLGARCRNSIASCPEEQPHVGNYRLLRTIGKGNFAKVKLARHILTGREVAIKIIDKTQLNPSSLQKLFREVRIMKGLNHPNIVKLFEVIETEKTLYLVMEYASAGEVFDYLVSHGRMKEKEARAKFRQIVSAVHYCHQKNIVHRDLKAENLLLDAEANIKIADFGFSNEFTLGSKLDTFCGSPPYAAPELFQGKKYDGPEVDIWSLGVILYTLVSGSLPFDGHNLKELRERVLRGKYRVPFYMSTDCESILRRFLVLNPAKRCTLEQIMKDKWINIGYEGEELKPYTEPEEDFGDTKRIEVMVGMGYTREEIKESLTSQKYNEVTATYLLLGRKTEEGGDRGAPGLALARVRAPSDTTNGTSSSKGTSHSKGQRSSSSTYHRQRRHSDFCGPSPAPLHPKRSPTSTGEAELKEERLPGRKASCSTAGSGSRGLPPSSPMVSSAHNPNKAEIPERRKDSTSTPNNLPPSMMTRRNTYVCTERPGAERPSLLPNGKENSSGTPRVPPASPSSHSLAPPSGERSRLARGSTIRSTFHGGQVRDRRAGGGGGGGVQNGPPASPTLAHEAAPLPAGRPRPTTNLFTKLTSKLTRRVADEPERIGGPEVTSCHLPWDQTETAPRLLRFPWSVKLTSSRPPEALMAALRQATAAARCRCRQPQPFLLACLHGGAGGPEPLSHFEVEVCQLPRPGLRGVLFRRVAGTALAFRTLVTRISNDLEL
Serine/threonine-protein kinase 32C (Homo sapiens), sequence (Q86UX6 whole entry): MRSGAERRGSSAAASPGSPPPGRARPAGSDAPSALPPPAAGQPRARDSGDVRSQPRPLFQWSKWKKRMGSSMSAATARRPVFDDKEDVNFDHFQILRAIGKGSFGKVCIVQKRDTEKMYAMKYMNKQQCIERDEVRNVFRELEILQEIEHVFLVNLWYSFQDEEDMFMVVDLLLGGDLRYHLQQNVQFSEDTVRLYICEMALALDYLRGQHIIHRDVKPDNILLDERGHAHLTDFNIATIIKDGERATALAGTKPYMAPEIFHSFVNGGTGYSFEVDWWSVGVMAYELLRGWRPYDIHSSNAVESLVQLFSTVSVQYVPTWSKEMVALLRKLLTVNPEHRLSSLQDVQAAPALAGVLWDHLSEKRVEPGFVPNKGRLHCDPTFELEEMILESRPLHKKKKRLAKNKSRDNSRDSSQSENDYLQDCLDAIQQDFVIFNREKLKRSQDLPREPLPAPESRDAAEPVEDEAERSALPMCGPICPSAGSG
SNF-related serine/threonine-protein kinase (Homo sapiens), Q9NRH2 [UNDEFINED MUTATION], sequence (Q9NRH2 whole entry, looked up, stated change not applied, the tested form may be a part): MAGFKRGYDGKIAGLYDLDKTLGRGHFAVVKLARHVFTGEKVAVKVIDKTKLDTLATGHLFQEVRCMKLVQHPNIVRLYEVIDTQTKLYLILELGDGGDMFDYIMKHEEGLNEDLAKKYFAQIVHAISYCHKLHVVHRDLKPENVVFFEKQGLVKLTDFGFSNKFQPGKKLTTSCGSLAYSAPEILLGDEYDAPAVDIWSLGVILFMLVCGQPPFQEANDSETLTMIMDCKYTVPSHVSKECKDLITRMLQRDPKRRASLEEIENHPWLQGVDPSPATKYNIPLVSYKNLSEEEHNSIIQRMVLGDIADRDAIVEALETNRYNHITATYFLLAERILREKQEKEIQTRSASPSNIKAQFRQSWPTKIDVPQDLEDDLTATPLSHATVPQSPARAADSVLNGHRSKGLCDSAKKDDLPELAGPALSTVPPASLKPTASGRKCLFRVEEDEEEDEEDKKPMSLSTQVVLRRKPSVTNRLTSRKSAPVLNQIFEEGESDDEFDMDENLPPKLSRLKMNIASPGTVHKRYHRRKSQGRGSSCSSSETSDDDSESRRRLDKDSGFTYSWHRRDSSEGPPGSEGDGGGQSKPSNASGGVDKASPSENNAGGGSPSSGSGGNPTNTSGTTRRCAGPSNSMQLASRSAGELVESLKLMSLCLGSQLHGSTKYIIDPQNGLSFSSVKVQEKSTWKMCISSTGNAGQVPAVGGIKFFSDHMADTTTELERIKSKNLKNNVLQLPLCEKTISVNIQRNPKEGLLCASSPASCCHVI
Dual specificity tyrosine-phosphorylation-regulated kinase 3 (Homo sapiens), sequence (O43781 whole entry): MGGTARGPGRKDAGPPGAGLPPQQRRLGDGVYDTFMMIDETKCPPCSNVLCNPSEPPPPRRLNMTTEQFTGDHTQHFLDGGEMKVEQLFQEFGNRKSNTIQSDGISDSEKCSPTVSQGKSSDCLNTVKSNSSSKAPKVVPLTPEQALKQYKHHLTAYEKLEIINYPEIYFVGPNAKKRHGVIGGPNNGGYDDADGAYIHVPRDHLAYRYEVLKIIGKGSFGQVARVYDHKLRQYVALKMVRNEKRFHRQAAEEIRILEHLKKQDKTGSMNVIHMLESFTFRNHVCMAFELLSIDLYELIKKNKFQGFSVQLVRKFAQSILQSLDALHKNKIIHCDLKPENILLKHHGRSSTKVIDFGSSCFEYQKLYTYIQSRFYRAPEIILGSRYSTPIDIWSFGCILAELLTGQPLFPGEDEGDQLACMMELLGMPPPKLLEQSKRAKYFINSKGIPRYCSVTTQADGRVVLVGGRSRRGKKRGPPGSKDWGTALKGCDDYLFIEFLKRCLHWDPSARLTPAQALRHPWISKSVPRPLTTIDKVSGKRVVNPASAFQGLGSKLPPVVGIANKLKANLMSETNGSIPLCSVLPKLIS
Serine/threonine-protein kinase VRK2 (Homo sapiens), sequence (Q86Y07 whole entry, the tested form may be a part): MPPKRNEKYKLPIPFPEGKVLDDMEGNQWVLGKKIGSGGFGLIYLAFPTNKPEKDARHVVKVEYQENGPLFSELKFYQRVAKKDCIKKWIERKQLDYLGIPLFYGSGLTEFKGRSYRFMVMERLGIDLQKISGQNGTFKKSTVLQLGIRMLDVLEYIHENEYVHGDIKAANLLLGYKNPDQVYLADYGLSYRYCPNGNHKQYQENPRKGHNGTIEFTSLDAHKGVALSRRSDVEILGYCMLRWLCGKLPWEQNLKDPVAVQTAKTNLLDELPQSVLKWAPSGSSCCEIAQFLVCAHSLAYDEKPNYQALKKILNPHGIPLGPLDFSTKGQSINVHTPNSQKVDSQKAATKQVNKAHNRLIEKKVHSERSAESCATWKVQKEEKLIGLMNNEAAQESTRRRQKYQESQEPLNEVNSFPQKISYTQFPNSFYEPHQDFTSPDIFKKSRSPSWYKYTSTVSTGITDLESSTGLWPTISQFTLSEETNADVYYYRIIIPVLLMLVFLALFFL
Tyrosine-protein kinase Lck (Homo sapiens), sequence (P06239 2-509 limits assumed): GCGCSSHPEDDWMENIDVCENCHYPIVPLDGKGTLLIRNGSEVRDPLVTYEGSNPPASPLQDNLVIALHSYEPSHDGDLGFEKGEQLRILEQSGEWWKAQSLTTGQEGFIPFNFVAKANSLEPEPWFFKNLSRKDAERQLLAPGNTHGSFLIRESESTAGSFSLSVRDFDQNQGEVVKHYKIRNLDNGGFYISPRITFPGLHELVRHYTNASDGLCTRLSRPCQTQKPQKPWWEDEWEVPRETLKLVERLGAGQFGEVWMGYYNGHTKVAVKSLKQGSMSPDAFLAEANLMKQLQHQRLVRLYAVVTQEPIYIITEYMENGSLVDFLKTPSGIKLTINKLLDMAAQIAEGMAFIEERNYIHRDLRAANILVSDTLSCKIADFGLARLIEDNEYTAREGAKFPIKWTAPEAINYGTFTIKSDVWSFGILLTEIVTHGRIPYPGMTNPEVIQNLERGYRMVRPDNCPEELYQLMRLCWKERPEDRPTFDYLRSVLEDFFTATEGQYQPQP
Wee1-like protein kinase 2 (Homo sapiens), sequence (P0C1S8 whole entry, looked up): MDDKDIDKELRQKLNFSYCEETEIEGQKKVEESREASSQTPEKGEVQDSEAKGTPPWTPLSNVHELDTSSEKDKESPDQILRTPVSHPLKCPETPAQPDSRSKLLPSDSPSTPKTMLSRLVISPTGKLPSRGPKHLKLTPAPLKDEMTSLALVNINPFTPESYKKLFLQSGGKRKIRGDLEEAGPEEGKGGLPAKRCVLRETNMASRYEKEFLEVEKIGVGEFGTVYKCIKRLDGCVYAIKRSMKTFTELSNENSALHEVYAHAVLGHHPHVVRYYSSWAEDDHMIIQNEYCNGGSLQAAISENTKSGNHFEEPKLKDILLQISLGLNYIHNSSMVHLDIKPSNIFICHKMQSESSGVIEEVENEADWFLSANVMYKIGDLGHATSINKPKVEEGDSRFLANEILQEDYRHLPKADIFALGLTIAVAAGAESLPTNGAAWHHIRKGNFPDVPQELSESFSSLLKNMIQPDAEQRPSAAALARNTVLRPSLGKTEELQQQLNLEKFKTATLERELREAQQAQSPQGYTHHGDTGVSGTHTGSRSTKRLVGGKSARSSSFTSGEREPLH

For the molecule `Cc1cc(C)c(CNc2nc(Cl)nc3c2ncn3C2CCCC2)c(=O)[nH]1`, the Activity in the test with HCT-116 came to 5.35%; in the test listed under Homo sapiens [1] it was 96.5%; in test [2] it was 108%; in test [3], 102%; in test [4], 95%; in test [5], 71%. Besides, the Activity in test [6] worked out at 102%; in [7], 95.5%; in the test filed under Homo sapiens [8] it was 102%; in test [9] it was 108%; in test [10], 111%; in [11], 122%. Moreover, the Activity in test [12] was found to be 123%; in test [13], 103%; in [14], 102%; in test [15] it was 97%; in test [16] it was 84.5%; in [17], 90%. Further, the Activity in [18] amounted to 104%; in the test listed under Mus musculus it was 104%; in test [19], 102%. Further, the outcome on Tubulin (Homo sapiens) and in the test with SW-620 was Active.
